Laboratory results reported in patent US11174253B2, “Compound and pharmaceutical composition containing the same” (ALPHALA CO., LTD., priority 2017, dated 2021).

How the values were obtained:
Format in all cases: cell-based
[1] = system: hepatocellular carcinoma cell line Hep3B; assay: Growth inhibition of Hep3B cells, 48 hr treatment, Hoechst 33342 nucleus count (GE InCell 2200); settings: Homo sapiens
Method in brief: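 Compound exposure lasted 48 hr at 37° C, 5% CO2. Surviving nuclei were counted after Hoechst 33342 staining, and survival was expressed as the treated/non-treated cell number ratio, including the ratio at 10 μM compound.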

[2] = system: Hep3B hepatocellular carcinoma cell line; assay: MTS cell viability assay (NCI-60 methodology), GI50/LC50, Hep3B; settings: Homo sapiens, 48 h, Hep3B cells, 2 days incubation with compound
Method in brief: (§1)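 Cells were plated 24 h before treatment, and a time-zero plate was read by MTS. Five 2-fold dilutions plus DMSO were then added for 48 h, and viability was measured by MTS. GI50 is from [(Ti−Tz)/(C−Tz)]×100=50 and LC50 from [(Ti−Tz)/Tz]×100=−50.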

[3] = system: SW480 colon adenocarcinoma cell line; assay: MTS cell viability assay (NCI-60 methodology), GI50/LC50, SW480; settings: Homo sapiens, 48 h, SW480 cells, 2 days incubation with compound
Method in brief: as §1

[4] = system: NCI-H460 human lung cancer cell line; assay: MTS cell viability assay (NCI-60 methodology), GI50/LC50, NCI-H460; settings: 48 h, NCI-H460 cells, 2 days incubation with compound
Method in brief: as §1

[5] = Table 5, ratio of number of tumor cells treated with 10 μM compound to non-treated cells
[6] = Table 6, ratio of number of tumor cells treated with 10 μM compound to non-treated cells

Row | Structure (SMILES) | viability at 10 µM [1, 5] [%] | GI50 [2] [nM] | LC50 [2] [nM] | GI50 [3] [nM] | LC50 (NCI-60 lethal concentration, 50% net cell loss vs time zero) [3] [nM] | GI50 [4] [nM] | LC50 (concentration giving 50% net cell loss versus time zero, NCI-60 definition) [4] [nM] | viability at 10 µM [1, 6] [%]
1 | CCCCOc1ccc(Oc2sc(NC(=O)c3ccc([N+](=O)[O-])s3)nc2-c2ccc(F)cc2)cc1 [Compound 5-66, N-(5-(4-butoxyphenoxy)-4-(4-fluorophenyl)thiazol-2-yl)-5-nitrothiophene-2-carboxamide] | 43 | 520 | 760 | 950 | 2810 | 390 | 1130 | 
2 | CCCCCCOc1ccc(-c2nc(NC(=O)c3ccc([N+](=O)[O-])s3)sc2Oc2ccccc2)cc1 [Compound 5-67, N-(4-(4-(hexyloxy)phenyl)-5-phenoxythiazol-2-yl)-5-nitrothiophene-2-carboxamide] | 46 | 620 | 690 | 1030 | 1910 | 790 | 1350 | 
3 | CCC(C)(C)c1ccc(Oc2sc(NC(=O)c3ccc([N+](=O)[O-])s3)nc2-c2ccc(C(F)(F)F)cc2)cc1 [Compound 5-71, 5-nitro-N-(5-(4-(tert-pentyl)phenoxy)-4-(4-(trifluoromethyl)phenyl)thiazol-2-yl)thiophene-2-carboxamide] | 49 | 630 | 660 | 810 | 1720 | 1530 | 2400 | 
4 | CC(C)(C)c1ccc(-c2nc(NC(=O)c3ccc([N+](=O)[O-])s3)sc2Oc2ccc(C(F)(F)F)cc2)cc1 [Compound 5-74, N-(4-(4-(tert-butyl)phenyl)-5-(4-(trifluoromethyl)phenoxy)thiazol-2-yl)-5-nitrothiophene-2-carboxamide] | 33 | 1160 | 1680 | 690 | 1290 | 720 | 1300 | 
5 | CC(C)(C)c1ccc(-c2nc(NC(=O)c3ccc([N+](=O)[O-])s3)sc2Oc2ccccc2C(F)(F)F)cc1 [Compound 5-75, N-(4-(4-(tert-butyl)phenyl)-5-(2-(trifluoromethyl)phenoxy)thiazol-2-yl)-5-nitrothiophene-2-carboxamide] | 34 | 800 | 1310 | 730 | 1670 | 670 | 1110 | 
6 | CCCCCOc1ccc(-c2nc(NC(=O)c3ccc([N+](=O)[O-])s3)sc2Oc2ccccc2)cc1 [Compound 5-76, 5-nitro-N-(4-(4-(pentyloxy)phenyl)-5-phenoxythiazol-2-yl)thiophene-2-carboxamide] | 38 | 560 | 1720 | 1270 | 5820 | 740 | 1520 | 
7 | CCCCc1ccc(-c2nc(NC(=O)c3ccc([N+](=O)[O-])s3)sc2Oc2ccccc2F)cc1 [Compound 5-80, N-(4-(4-butylphenyl)-5-(2-fluorophenoxy)thiazol-2-yl)-5-nitrothiophene-2-carboxamide] | 26 | 680 | 1280 | 1460 | 4170 | 840 | 1750 | 
8 | O=C(Nc1nc(-c2ccc(C(F)(F)F)cc2)c(Oc2ccccc2)s1)c1ccc([N+](=O)[O-])s1 [Compound 5-81, 5-nitro-N-(5-phenoxy-4-(4-(trifluoromethyl)phenyl)thiazol-2-yl)thiophene-2-carboxamide] | 30 | 980 | 4230 | 2470 | 8600 | 810 | 2110 | 
9 | O=C(Nc1nc(-c2ccc(OC(F)(F)F)cc2)c(Oc2ccccc2F)s1)c1ccc([N+](=O)[O-])s1 [Compound 5-85, N-(5-(2-fluorophenoxy)-4-(4-(trifluoromethoxy)phenyl)thiazol-2-yl)-5-nitrothiophene-2-carboxamide] | 34 | 870 | 2540 | 1660 | 5730 | 750 | 1580 | 
10 | Cc1ccc(-c2nc(NC(=O)c3ccc([N+](=O)[O-])s3)sc2-c2cc(C(F)(F)F)cc(C(F)(F)F)c2)cc1 [Compound 6-5, N-(5-(3,5-bis(trifluoromethyl)phenyl)-4-(p-tolyl)thiazol-2-yl)-5-nitrothiophene-2-carboxamide] |  | 950 | 1080 | 1200 | 1410 | 1120 | 1630 | 46
11 | CCCOc1ccc(-c2nc(NC(=O)c3ccc([N+](=O)[O-])s3)sc2-c2ccc(F)cc2)cc1 [Compound 6-16, N-(5-(4-fluorophenyl)-4-(4-propoxyphenyl)thiazol-2-yl)-5-nitrothiophene-2-carboxamide] |  | 1240 | 1830 | 1890 | 2790 | 860 | 1750 | 59
12 | CCCCOc1ccc(-c2nc(NC(=O)c3ccc([N+](=O)[O-])s3)sc2-c2ccc(F)cc2)cc1 [Compound 6-18, N-(4-(4-butoxyphenyl)-5-(4-fluorophenyl)thiazol-2-yl)-5-nitrothiophene-2-carboxamide] |  | 1380 | 2170 | 6490 |  | 2010 | 8260 | 26
13 | CC(C)(C)c1ccc(-c2nc(NC(=O)c3ccc([N+](=O)[O-])s3)sc2-c2ccccc2)cc1 [Compound 6-21, N-(4-(4-(tert-butyl)phenyl)-5-phenylthiazol-2-yl)-5-nitrothiophene-2-carboxamide] |  | 670 | 1350 | 490 | 1470 | 810 | 1470 | 29
14 | CC(C)(C)c1ccc(-c2nc(NC(=O)c3ccc([N+](=O)[O-])s3)sc2-c2ccc(F)cc2)cc1 [Compound 6-24, N-(4-(4-(tert-butyl)phenyl)-5-(4-fluorophenyl)thiazol-2-yl)-5-nitrothiophene-2-carboxamide] |  | 990 | 1930 | 1370 | 3570 | 1560 | 4220 | 30
15 | CCOc1ccc(-c2nc(NC(=O)c3ccc([N+](=O)[O-])s3)sc2Cc2ccccc2)cc1 [Compound 6-34, N-(5-benzyl-4-(4-ethoxyphenyl)thiazol-2-yl)-5-nitrothiophene-2-carboxamide] |  | 1010 | 7530 | 2510 |  | 1400 |  | 44
16 | CC(C)(C)c1ccc(-c2nc(NC(=O)c3ccc([N+](=O)[O-])s3)sc2-c2cc(F)cc(F)c2)cc1 [Compound 6-38, N-(4-(4-(tert-butyl)phenyl)-5-(3,5-difluorophenyl)thiazol-2-yl)-5-nitrothiophene-2-carboxamide] |  | 630 | 1610 | 740 | 4060 | 700 | 1650 | 30
17 | CCC(C)(C)c1ccc(-c2nc(NC(=O)c3ccc([N+](=O)[O-])s3)sc2-c2ccc(F)cc2)cc1 [Compound 6-40, N-(5-(4-fluorophenyl)-4-(4-(tert-pentyl)phenyl)thiazol-2-yl)-5-nitrothiophene-2-carboxamide] |  | 540 | 3030 | 920 | 1350 | 1880 | 3610 | 25
18 | CC(C)(C)c1ccc(-c2nc(NC(=O)c3ccc([N+](=O)[O-])s3)sc2-c2ccc(F)c(F)c2)cc1 [Compound 6-46, N-(4-(4-(tert-butyl)phenyl)-5-(3,4-difluorophenyl)thiazol-2-yl)-5-nitrothiophene-2-carboxamide] |  | 590 | 1100 | 680 | 1330 | 630 | 900 | 31
19 | CCC(C)(C)c1ccc(-c2nc(NC(=O)c3ccc([N+](=O)[O-])s3)sc2-c2ccc(F)cc2F)cc1 [Compound 6-47, N-(5-(2,4-difluorophenyl)-4-(4-(tert-pentyl)phenyl)thiazol-2-yl)-5-nitrothiophene-2-carboxamide] |  | 590 | 660 | 640 | 1390 | 580 | 930 | 33
